The record followed here is patent publication US9023853B2, “Janus kinase 2 (JAK2) inhibitor for the treatment of lupus” (Cephalon, Inc., priority 2010, dated 2015).

Common to all, as to format: in vivo, mouse
For test [1], the system named is anti-Smith antigen antibodies. Nature of the test: Serum anti-Smith antigen ANA ELISA in NZM mice. Conditions: p<0.05. The text has this:
The measurement of anti-dsDNA and anti-Smith antigen antibodies was done by an in-house generated custom ELISA assay. Chromatin coated plates were purchased from Inova Diagnostics, Inc. Purified bovine thymus dsDNA (Sigma, St. Louis, […].) or purified bovine Smith antigen (GenWay, San Diego, Calif.) were used as coating antigen for the detection of anti-dsDNA and anti-Smith Ag antibodies respectively. Coated plates were washed with Borate Sulfate Saline (BSS) and blocked with BSS containing 1% Bovine Serum Albumin (BSA) and 0.1% Tween-20 detergent. Standard curves were generated using mouse anti-chromatin antibody (Sigma, 2B1) or 25 week old MRL/lpr serum. Mouse anti-dsDNA antibody (Abcam, Cambridge, Mass.), or mouse anti-Smith antigen antibody (Abcam) were used as standards for each assay. […] Developed plates were read using a Victor-X4 spectrophotometer reading at […] with a reference wavelength of 570 nm. […]
Age mated, female, NZM or NZW/LacJ, mice were matured for the study of lupus nephritis for a total of 7 months or 210 days at which time urine was collected for proteinuria detection. Mice with 0.5-1.0 mg/ml of urine protein as determined by an optical density-based total protein precipitation assay and cross-checked for 30-300 mg/dl of protein as determined by a stick assay were considered proteinuria positive and selected for study entry. […]
A general note: An ELISA detects its analyte on a solid surface through an enzyme-linked reagent.

The test system of test [2] is ASCs specific for chromatin. The test can be described thus: Anti-chromatin antibody secreting B-cell Elispot, NZM spleen. Conditions: NZM mice. The protocol:
Age mated, female, NZM or NZW/LacJ, mice were matured for the study of lupus nephritis for a total of 7 months or 210 days at which time urine was collected for proteinuria detection. Mice with 0.5-1.0 mg/ml of urine protein as determined by an optical density-based total protein precipitation assay and cross-checked for 30-300 mg/dl of protein as determined by a stick assay were considered proteinuria positive and selected for study entry. Groups were normalized to contain a Gaussian distribution of proteinuria positive animals (i.e., ⅓ low proteinuria, ⅓ medium, ⅓ high) then randomized between groups before ear marking and taking baseline measures including urine and serum collections. A total of five mice from the total population were randomly selected for baseline kidney histology evaluation. Treatments and tests for each group are as described in FIG. 12. Briefly, with a minimum of 10 mice per group, COMPOUND A was administered at 100 mg/kg or 55 mg/kg, both twice a day and orally. […] Vehicle included 3% DMSO, 10% Solutol and 87% PBS. […] End-stage lupus nephritis was evaluated by histopathology and scored by a board certified pathologist for the assessment of total renal damage in diseased animals using the scoring method described by Smith et al (Smith, Dong et al. 2007). […] Day-98 or “end of treatment/study” represents 310 days of age for the NZM animals.

For a further test, the system named is NZM mice. Nature of the test: Lung histopathology in NZM mice. On the procedure: For histological analyses, the left kidney and lung (NZM model only) from each animal was removed and fixed in 10% buffered neutral 10% formalin (EMD) for 48 hours on an orbital rocker at 25° C., then washed overnight with running dH2O and stored in 70% ethanol at 4° C. until ready to be processed. Kidney stains used for histological analyses included hematoxylin and eosin (H&E), Periodic Acid Schiff (PAS) and Trichrome stains (Wistar Institute, Philadelphia, Pa.). All 3 stained sections were used by the pathologist for scoring purposes. All histological scoring was performed blinded and by an independent board certified veterinary medical pathologist (Julie Engiles, VMD, DACVP; University of Pennsylvania). […]
(§1) Age mated, female, NZM or NZW/LacJ, mice were matured for the study of lupus nephritis for a total of 7 months or 210 days at which time urine was collected for proteinuria detection. Mice with 0.5-1.0 mg/ml of urine protein as determined by an optical density-based total protein precipitation assay and cross-checked for 30-300 mg/dl of protein as determined by a stick assay were considered proteinuria positive and selected for study entry. […] End-stage lupus nephritis was evaluated by histopathology and scored by a board certified pathologist for the assessment of total renal damage in diseased animals using the scoring method described by Smith et al (Smith, Dong et al. 2007). […]

A further test relates to plasma cells. Nature of the test: Spleen plasma cells by flow cytometry in NZM mice. The protocol: Antibodies used for flow cytometry consisted of anti-mouse CD138-APC (eBioscience, San Diego, Calif.), anti-mouse CD19-FITC (eBioscience, San Diego, Calif.), anti-mouse CD38-PE (eBioscience, San Diego, Calif.) and anti-mouse CD45R/B220-Cyc (eBioscience, San Diego, Calif.), Rat IgG1-APC isotype control (eBioscience, San Diego, Calif.), Rat IgG2a-PE isotype control (eBioscience, San Diego, Calif.). All samples were analyzed using an Accuri C6 Flow Cytometer. Complete media was used for all experiments involving the ex vivo culture of splenocytes for all Elispot experiments. Complete media consisted of RPMI1640 (Cellgro, Manassas, Va.), plus 1% Pen-Strep (Cellgro, Manassas, Va.), 1% L-Gln (Cellgro, Manassas, Va.), 1% NEAA (Cellgro, Manassas, Va.), β-ME (Cellgro, Manassas, Va.), plus 10% FBS (Cellgro, Manassas, Va.).
Washed, RBC-lysed splenocytes were stained for plasma cell markers as previously used in published reports (Neubert, Meister et al. 2008). As used herein the term “plasma cell” will refer to the following immunophenotype definition: Plasma cells were defined as live CD19-negative, CD45R/B220-negative, CD138-positive, CD38-positive events for the MRL/lpr model. A total of 200,000-500,000 events were collected per tube/sample. […]
as §1
(In general: Flow cytometry measures light scatter and fluorescence of single cells or particles in a stream.)

On to `CN1CCN(c2cccc(Nc3nc4c(-c5ccc(S(C)(=O)=O)cc5)cccn4n3)c2)CC1` [COMPOUND A, [8-(4-methanesulfonyl-phenyl)-[1,2,4]triazolo[1,5-a]pyridin-2-yl]-[3-(4-methyl-piperazin-1-yl)-phenyl]-amine], for which, in test [1] (COMPOUND A treatment), the “anti-smith antigen ANAs” value is recorded as “significantly reduced”. Besides, the figures for the “ASCs specific for chromatin, decrease” value in test [2] (COMPOUND A 55 mg/kg) and in test [2] (COMPOUND A 100 mg/kg) were 97.4% and 100%, respectively. Moreover, the lung infiltrates entry with NZM mice (COMPOUND A 55 mg/kg and 100 mg/kg, vs dexamethasone and vehicle) is recorded as “prevented lung infiltrates”. Besides, the entries for the “spleen plasma cells decrease compared to vehicle” value in the test on plasma cells (COMPOUND A 55 mg/kg) and with plasma cells (COMPOUND A 100 mg/kg) were 57.6% and 52.9%, respectively.
Regarding `O=P1(N(CCCl)CCCl)NCCCO1` (stereo not shown) [CTX, cyclophosphamide, reference compound], in test [1] (CTX 50 mg/kg once weekly ip), the “anti-smith antigen ANAs” value is given as “significantly reduced”. In addition, in test [2] (CTX 50 mg/kg once weekly ip), the “ASCs specific for chromatin, decrease” value is recorded as 100%. Moreover, in the test on NZM mice (CTX 50 mg/kg once weekly ip), the lung infiltrates entry is “prevented lung infiltrates”. Besides, the “levels of spleen plasma cells” value with plasma cells (cyclophosphamide 50 mg/kg once weekly ip) was “the decrease was not significant”.
